Experimental data published in ChEMBL document CHEMBL2384990, “New Promising Compounds with in Vitro Nanomolar Activity against Trypanosoma cruzi” (ACS Med Chem Lett, 2013).
Activity calls are given as the source filed them. The rule behind the calls is not given here.

Columns and labels:
[1] = system: Leishmania donovani; assay: […] activity against Leishmania donovani MHOM-ET-67/L82 amastigotes after 72 hrs by Alamar blue assay; format: functional, organism-based; details: MHOM-ET-67/L82, 72 h
[2] = system: L6; assay: Cytotoxicity against rat L6 cells after 72 hrs by Alamar blue assay; format: cell-based; details: L6, 72 h
[3] = system: Trypanosoma cruzi; assay: Antitrypanosomal activity against Trypanosoma cruzi Tulahuen C2C4 amastigotes infected in rat L6 cells after 96 hrs by photometric analysis; format: functional, organism-based; details: Tulahuen C2C4, L6, 96 h
[4] = Selectivity index, ratio of IC50 for rat L6 cells to IC50 for Trypanosoma cruzi Tulahuen C2C4 amastigotes infected in rat L6 cells; format: toxicity, cell-based; details: read-out: Ratio IC50
[5] = system: Plasmodium falciparum; assay: Antiplasmodial activity against erythrocytic stage of Plasmodium falciparum K1 after 48 hrs by [3H]-hypoxanthine incorporation assay; format: functional, organism-based
[6] = target: Sterol 14-alpha demethylase (Trypanosoma cruzi (strain CL Brener)) (UniProt Q7Z1V1); assay: Inhibition of Trypanosoma cruzi CYP51
Chain of Sterol 14-alpha demethylase (Trypanosoma cruzi (strain CL Brener)) (Q7Z1V1 whole entry, looked up): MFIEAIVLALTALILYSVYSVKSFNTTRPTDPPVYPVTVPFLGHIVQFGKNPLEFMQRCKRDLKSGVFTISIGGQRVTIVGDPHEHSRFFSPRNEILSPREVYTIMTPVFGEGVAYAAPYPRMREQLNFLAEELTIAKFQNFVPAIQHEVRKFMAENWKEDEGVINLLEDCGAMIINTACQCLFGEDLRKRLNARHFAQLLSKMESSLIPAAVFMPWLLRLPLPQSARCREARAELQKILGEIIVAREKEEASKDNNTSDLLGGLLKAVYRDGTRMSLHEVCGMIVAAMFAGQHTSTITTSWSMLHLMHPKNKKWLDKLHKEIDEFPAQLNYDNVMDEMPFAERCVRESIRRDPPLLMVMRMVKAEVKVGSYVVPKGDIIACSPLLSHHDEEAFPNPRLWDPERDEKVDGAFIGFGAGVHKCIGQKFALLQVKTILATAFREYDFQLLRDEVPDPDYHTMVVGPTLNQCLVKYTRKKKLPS

[7] = system: Trypanosoma brucei rhodesiense; assay: Antitrypanosomal activity against Trypanosoma brucei rhodesiense STIB 900 trypomastigotes after 72 hrs by Alamar blue assay; format: functional, organism-based; details: STIB 900, 72 h
[8] = system: Trypanosoma cruzi; assay: Ratio of Benznidazole IC50 to compound IC50 for Trypanosoma cruzi Tulahuen C2C4 amastigotes infected in rat L6 cells; format: functional
[9] = Metabolic stability in human liver microsomes assessed as CYP-dependent metabolism after 60 mins by LC-UV-MS analysis; format: ADME, Microsome; details: 1 h

SMILES	IC50 [1] [µM]	IC50 [2] [µM]	IC50 [3] [µM]	selectivity ratio [4]	IC50 [5] [µM]	inhibition [6]	IC50 [7] [µM]	Ratio IC50 [8]	Stability [9]
Cc1ncc([N+](=O)[O-])n1CCOC(=O)Nc1ccncc1Br	85.1	222	48.4	4.6	60.2	inactive	139	–	–
O=C(Nc1ccnc(Cl)c1)OCCN1CCOCC1	190	238	175	1.3	79.8	inactive	230	–	–
O=C(Cn1ccnc1[N+](=O)[O-])NCc1ccccc1 [BENZNIDAZOLE]	–	–	1.67	–	–	–	–	–	–
CC(C)c1ccc(NC(=O)O[C@@H](Cn2ccnc2)c2ccc(Cl)cc2)cc1	–	14	0.112	125	–	–	–	–	–
CCCCCCCCCCCCCCCCOP(=O)([O-])OCC[N+](C)(C)C [MILTEFOSINE]	0.366	–	–	–	–	–	–	–	–
COc1cc([C@@H]2c3cc4c(cc3[C@H](O)[C@H]3COC(=O)[C@H]23)OCO4)cc(OC)c1OC [PODOFILOX]	–	0.001	–	–	–	–	–	–	–
CC(C)c1ccc(NC(=O)OC(Cn2ccnc2)c2ccc(Cl)cc2)cc1 (racemic)	7	13	0.005	2490	1.8	–	18.2	–	–
O=C(Nc1cc(Cl)nc(Cl)c1)OC(Cn1ccnc1)c1ccc(Cl)cc1 (racemic)	11.4	27.2	0.036	749	1.5	–	34	–	–
O=C(O[C@@H](Cn1ccnc1)c1ccccc1)c1ccc(-c2ccccc2)cc1	–	27.5	0.193	143	–	–	–	–	–
O=C(Nc1cc(Cl)nc(Cl)c1)O[C@H](Cn1ccnc1)c1ccc(Cl)cc1	–	31.6	0.0236	1340	–	–	–	<=1000	–
CC(C)c1ccc(NC(=O)O[C@H](Cn2ccnc2)c2ccc(Cl)cc2)cc1	–	13.4	0.0018	7470	–	–	–	<=1000	Unstable
O=C(O[C@H](Cn1ccnc1)c1ccccc1)c1ccc(-c2ccccc2)cc1	–	18.2	0.0038	4800	–	–	–	<=1000	Unstable
O=C(Nc1cc(Cl)nc(Cl)c1)O[C@@H](Cn1ccnc1)c1ccc(Cl)cc1	–	15.4	0.0972	158	–	–	–	–	–
O=C(COc1ccccc1)OC(Cn1ccnc1)c1ccc(F)cc1 (racemic)	17.3	182	24.4	7.5	36.7	–	294	–	–
O=C(Nc1cc(Cl)nc(Cl)c1)OCCN1CCOCC1	123	79.3	133	0.6	23.1	inactive	117	–	–
O=C(OC(Cn1ccnc1)c1ccccc1)c1ccc(-c2ccccc2)cc1 (racemic)	5.4	23.6	0.014	1580	2.2	–	42.1	–	–
CC(C)c1ccc(NC(=O)OC(Cn2ccnc2)c2ccc(F)cc2)cc1 (racemic)	15	16.8	0.005	3360	4.6	–	19.1	–	–
